Two compounds from article PMC10411625, “Rationally designed stapled peptides allosterically inhibit PTBP1–RNA-binding” (Chemical Science, 2023) can be followed below.

Where two headings read alike, the source gives them in different places.

Data set [1] addresses T1, PTBP1 RRM12 (Homo sapiens, UniProt P26599).
T1 construct: (P57-V265); MBP (from pMAL vector); His tag; made in house; host or cells: E. coli BL21 DE3 RIL
T1 sequence (P26599 57-265): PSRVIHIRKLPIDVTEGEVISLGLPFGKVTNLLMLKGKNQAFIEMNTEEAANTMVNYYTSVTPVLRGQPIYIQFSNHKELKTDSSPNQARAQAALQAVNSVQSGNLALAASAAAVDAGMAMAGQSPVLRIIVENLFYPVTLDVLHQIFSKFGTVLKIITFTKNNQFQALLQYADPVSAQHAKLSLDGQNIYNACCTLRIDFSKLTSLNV
As to the kind of experiment: Competitive fluorescence polarization assay between RRM12 and RNA-2. In kind it is binding. The text has this:
(§1) For the initial design we used the i, i + 4 strategy where two (S)-pentenyl alanines (S5) were introduced in positions with three other amino acids in between. We picked three different amino acid pairs to replace with the S5 amino acids based on their orientation as observed in the NMR structures (P-2, P-3 and P-4, Fig. 2B and C).[25] To prevent the staple from disturbing the interaction between the ligand and the protein we chose positions facing away from the binding site forming the pairs Ala145/Ala149, Gln148/Gln152, and Ala149/Ala153. The three peptides were synthesized on Rink amide resin and the linear peptides were treated with a Grubbs catalyst to connect the S5 residues. To avoid a mixture of E/Z-diastereomers we reduced the alkene in the linker of the staple using a solution phase hydrogenation protocol.[43] The linear equivalent P-1 was synthesized for comparison but had to be extended on the C-terminus with an arginine residue to improve its solubility. The C-terminus is away from the binding surface and this modification was therefore not expected to have an impact on the binding affinity. The peptides were tested in a competitive fluorescence polarization assay using the RRM12 construct and RNA-2 (Fig. 2C and S2 ^†). […] As the staple is expected to stabilize the α-helical conformation we used circular dichroism (CD) spectroscopy to evaluate the helicity of the peptides. […] It is possible that although P-4 was more helical than P-3, the replacement of Gln148 with the hydrophobic linker disturbed the interaction since the side chain amide potentially interacts with the RRM1 surface. […]
size exclusion chromatography (Superdex 75 16/60 or 26/60) with SEC buffer (50 mM Tris, 200 mM NaCl). Protein homogeneity was assessed by the size exclusion chromatogram and purity was checked by SDS-PAGE analysis to be >= 90%.
The gene encoding for SRSF1-RRM12 (1-195) was subcloned into pOPIN-His expression vector and expressed in E. coli BL21 (DE3). A pre-culture of transformed bacteria was made followed by expression in LB-Medium (100 µg/ml Ampicillin, 1 mM IPTG, 18 °C, 160 rpm overnight) after growing the culture at 37 °C, 160 rpm to an OD600 of 0.6. The harvested cells (5000 x g, 4 °C, 15 min) were resuspended in Buffer ASRSF1 (50 mM Na2HPO4 pH 8.0, 300 mM KCl, 50 mM L-Arg, 50 mM L-Gly, 1.5 mM MgCl2) supplemented with 1 mM PMSF followed by lysis through sonification. The protein was purified using a HisTrap HP 5 ml column (GE-Healthcare) using a gradient of Buffer BSRSF1 (50 mM Na2HPO4 pH 8.0, 300 mM KCl, 50 mM L-Arg, 50 mM L-Gly, 1.5 mM MgCl2, 500 mM Imidazole) followed by dialysis into wash buffer (50 mM Na2HPO4 pH 8.0, 300 mM KCl, 50 mM L-Arg, 50 mM L-Gly, 1.5 mM MgCl2, 40 mM Imidazole) and a second run of the affinity column. The protein containing fractions were afterwards dialyzed into wash buffer with tag-cleavage using His-tagged 3C protease. The cleaved construct was subsequently used for a third affinity column run collecting the unbound fraction which was dialyzed into storage buffer (20 mM Na2HPO4 pH 8.0, 150 mM KCl, 50 mM L-Arg, 50 mM L-Gly, 1.5 mM MgCl2, 0.2 mM EDTA, 1 mM TCEP).
Purification of hnRNP A2/B1
The MBP-tagged hnRNP A2/B1 construct (1-251) was expressed from a pOPIN-His-MBP vector in E. coli BL21 (DE3) RIPL cells. A pre-culture in TB (0.01% lactose, 2mM MgSO4, 100 µg/ml ampicillin, 50 µg/ml chloramphenicol) was used to inoculate the expression culture with a starting OD600 of 0.05 at 37 °C. Expression was autoinduced at 37 °C for 4 h followed by expression over night at 25 °C. Harvested cells (5000 x g, 15 min, 4 °C) were resuspended in Buffer AhnRNPA2/B1 (50 mM HEPES pH 8.0, 300 mM NACl, 20 mM Imidazole, 1 mM TCEP) supplemented with 1 mM PMSF) and lysed with a microfluidizer.
Immobilized metal affinity chromatography was performed using a HisTrap FF crude 5 ml column. The loaded protein was washed with wash buffer (50 mM HEPES pH 8.0, 300 mM NaCl, 30 mM Imidazole, […]

A short description of data set [2]: Helicity by circular dichroism spectroscopy. The format is physicochemical. The conditions noted are these: 50 µM peptide, 20 mM sodium phosphate pH 8.0, 10 mM NaF, 20 °C, triplicates, JASCO multivariate secondary structure analysis.
Source text: as §1
performed in FP bufferPTBP1. […]
serially diluted in the same buffer. […]
a final concentration of 10 nM probe. […]
the settings mentioned previously.
Fluorescence polarization assay with SRSF1
Fluorescence polarization was
Fluorescence polarization assay with hnRNPA2/B1
For the competitive assay 10 nM
Microscale thermophoresis […]
afterwards serially diluted into FP buffer.
The data was evaluated at […]
experiments were performed in duplicates.
Circular Dichroism Spectroscopy […]
On the technique in general: CD spectra are sensitive to the conformation of chiral molecules.

[3] abbreviates: Fig. 2C, 5 nM FAM-RNA-2, protein at 50-70 % probe binding, FP buffer pH 8.0, 20 °C, 30 min, n.b. given for inactive peptides, read-out: Ki, competitive FP assay between RRM12 and RNA-2.

Consider `CC(=O)N[C@@H](CC(N)=O)C(=O)N[C@@H](CCC(N)=O)C(=O)N[C@@]1(C)CCCCCCCC[C@@](C)(C(=O)N[C@@H](C)C(=O)N[C@@H](CC(C)C)C(=O)N[C@@H](CCC(N)=O)C(=O)N[C@@H](C)C(=O)N[C@H](C(=O)N[C@@H](CC(N)=O)C(N)=O)C(C)C)NC(=O)[C@H](CCC(N)=O)NC(=O)[C@H](C)NC(=O)[C@H](CCCNC(=N)N)NC1=O` [Peptide P-2], for which the Ki in data set [1] (setting [3]) was found to be 11.6 µM. In addition, the “Helicity by CD spectroscopy” value in data set [2] stood at 92.3%.

In the case of `CC(=O)N[C@@H](CC(N)=O)C(=O)N[C@@H](CCC(N)=O)C(=O)N[C@@]1(C)CCCC=CCCCC2(CCCC=CCCC[C@](C)(C(=O)N[C@H](C(=O)N[C@@H](CC(N)=O)C(N)=O)C(C)C)NC(=O)[C@H](CCC(N)=O)NC(=O)[C@H](CC(C)C)NC(=O)[C@H](C)NC2=O)NC(=O)[C@H](CCC(N)=O)NC(=O)[C@H](C)NC(=O)[C@H](CCCNC(=N)N)NC1=O` (stereo partly shown) [Peptide P-6], the Ki in data set [1] (setting [3]) worked out at 9.3 µM; in data set [1] (Fig. 3C experiment, competitive FP with RNA-2, read-out: P-6 Ki, construct RRM12) it was 8 ± 7.1 µM.

For orientation: Ki means a dissociation constant, usually derived from enzyme kinetics or from competition with a known ligand.
